Results: ChEMBL document CHEMBL1201862, “PubChem BioAssay data set” (2004)
Calls of active or inactive are those of the source.

Assays:
[1] = inhibitors of intracellular T. cruzi replication, confirmation, NIH3T3 host cells, beta-gal luminescence (AID 2044); format: functional, cell-based;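 also: intracellular parasites grown in NIH/3T3 mouse fibroblasts as host cells; luminescent beta-galactosidase reporter signal from transgenic T. cruzi replicating inside host cells; inhibitors lower the luminescence signal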
INS1 = test: beta cell apoptosis inhibitors, cytokine rescue, dose response, luminescence, retest (AID 449756); format: functional, cell-based; conditions: Rattus norvegicus;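 also: cell death triggered by IL-1 beta plus TNF-alpha plus IFN-gamma mixture; protective hits raise ATP signal compared with cytokine alone wells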
[2] = Shn3 3'UTR reporter inhibitors, dose response, cell-based, Clone20 osteoblasts, firefly luciferase, cherry-picked (AID 624132); format: functional;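 also: firefly luciferase luminescence from reporter carrying the Shn3 3'UTR in osteoblasts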
[3] = cytotoxicity in MIN6 insulinoma cells, dose response, cytotoxicity control, cell-based, mouse insulinoma (AID 2122); format: functional;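 also: confirmatory high-throughput counterscreen run to flag cytotoxic compounds; mouse MIN-6 beta cells carrying an insulin promoter eGFP reporter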
cells [4] = format: functional, cell-based
BJ [5] = test: cytotoxicity toward BJ-TERT-LT-ST fibroblasts, dose response, cell-based, RAS-independent, luminescence (AID 1935); format: functional; conditions: Homo sapiens;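 also: BJ fibroblasts immortalized with TERT plus LT and ST oncogenes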
BJ [6] = test: cytotoxicity toward BJ-TERT fibroblasts, dose response, cell-based, RAS-independent, luminescence (AID 1933); format: functional; conditions: Homo sapiens
[7] = insulin promoter down-regulators in MIN6 cells, imaging, high-content screening, mouse beta cells (AID 1628); format: functional
[8] = cytotoxicity toward NIH3T3 fibroblasts, dose response, counter-screen, cell-based, ATP luminescence, mouse fibroblasts (AID 2010); format: functional;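 also: cells exposed to compound for about 90 hours before reading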
[9] = control 3'UTR Renilla luciferase suppression, dose response, counter-screen for Shn3 inhibitor project, cell-based, Clone20-Shn3RL, cherry-picked (AID 624133); format: functional
[10] = HEK293T cytotoxicity, dose response, cytotoxicity control for miR-122 modulator project, cell-based, activator set, cherry-pick (AID 720690); format: functional;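 also: HEK293T human cells scored for general mammalian cytotoxicity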
BJ [11] = test: cells; format: functional, cell-based; conditions: Homo sapiens
[12] = HEK293T cytotoxicity, dose response, cytotoxicity control for miR-122 modulator project, cell-based, inhibitor set, cherry-pick, set 2 (AID 720697); format: functional
[13] = cytotoxicity toward DRD oncogenic fibroblasts, dose response, cell-based, non-viral oncogenic, luminescence (AID 1934); format: functional; conditions: Homo sapiens
[14] = HepG2 cell cytotoxicity, dose response, cytotoxicity control for Shn3 inhibitor project, CellTiter-Glo, cherry-picked (AID 624134); format: functional, cell-based
cells [15] = format: functional, cell-based; remark: listed apart in the source
CAAX prenyl protease 2 = CAAX prenyl protease 2 (Homo sapiens, UniProt Q9Y256); test: human Rce1 protease inhibitors, dose response, biochemical, yeast membranes, quenched-peptide fluorescence, cherry-pick (AID 588849)
Sequence of CAAX prenyl protease 2 (Q9Y256 whole entry): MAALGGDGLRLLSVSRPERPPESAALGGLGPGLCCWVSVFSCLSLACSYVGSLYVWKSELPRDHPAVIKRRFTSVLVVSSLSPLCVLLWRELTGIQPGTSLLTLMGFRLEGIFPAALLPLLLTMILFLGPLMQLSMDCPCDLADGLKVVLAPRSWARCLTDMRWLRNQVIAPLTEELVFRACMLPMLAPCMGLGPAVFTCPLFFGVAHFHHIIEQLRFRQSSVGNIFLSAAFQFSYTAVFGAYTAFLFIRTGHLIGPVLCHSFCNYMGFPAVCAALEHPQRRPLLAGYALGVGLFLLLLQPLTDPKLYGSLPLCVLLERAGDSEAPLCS

[16] = target: T1, Microphthalmia-associated transcription factor (Homo sapiens, UniProt O75030); test: TRPM1 promoter luciferase signal decrease, dose response, MITF inhibitor project, cell-based, SK-MEL-5, cherry-picked, set 3 (AID 493073); format: functional
T1 sequence (O75030 whole entry): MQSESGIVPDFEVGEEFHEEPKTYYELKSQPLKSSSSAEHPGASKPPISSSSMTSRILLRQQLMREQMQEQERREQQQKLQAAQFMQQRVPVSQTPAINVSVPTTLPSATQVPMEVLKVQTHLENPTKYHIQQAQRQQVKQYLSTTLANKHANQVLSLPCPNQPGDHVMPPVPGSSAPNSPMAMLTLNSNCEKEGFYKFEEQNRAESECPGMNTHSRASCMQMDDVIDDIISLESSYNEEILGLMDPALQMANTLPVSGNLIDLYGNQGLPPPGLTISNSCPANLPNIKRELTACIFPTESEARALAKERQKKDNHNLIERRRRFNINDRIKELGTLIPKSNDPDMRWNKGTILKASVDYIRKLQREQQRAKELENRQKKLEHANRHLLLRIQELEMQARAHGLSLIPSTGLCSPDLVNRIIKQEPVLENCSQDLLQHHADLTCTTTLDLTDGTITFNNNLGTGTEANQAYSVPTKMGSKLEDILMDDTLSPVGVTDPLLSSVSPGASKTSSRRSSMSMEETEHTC

[17] = target: DNA dC->dU-editing enzyme APOBEC-3A (Homo sapiens, UniProt P31941); test: Dose Response confirmation of small molecule APOBEC3A DNA Deaminase Inhibitors via a fluorescence-based single-stranded DNA deaminase assay. [Related pubchem assays (depositor defined):AID493011, AID493024]; format: functional
Sequence of DNA dC->dU-editing enzyme APOBEC-3A (P31941 whole entry): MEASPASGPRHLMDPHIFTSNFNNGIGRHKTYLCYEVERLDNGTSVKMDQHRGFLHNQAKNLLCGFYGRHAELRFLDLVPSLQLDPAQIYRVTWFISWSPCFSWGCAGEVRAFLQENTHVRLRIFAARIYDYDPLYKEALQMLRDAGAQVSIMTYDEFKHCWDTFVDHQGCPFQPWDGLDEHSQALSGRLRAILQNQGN

[18] = target: DNA dC->dU-editing enzyme APOBEC-3G (Homo sapiens, UniProt Q9HC16); format: functional;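 also: Dose-response counterscreen measuring inhibition of APOBEC3G DNA deaminase activity, run while confirming APOBEC3A inhibitors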
Sequence of DNA dC->dU-editing enzyme APOBEC-3G (Q9HC16 whole entry): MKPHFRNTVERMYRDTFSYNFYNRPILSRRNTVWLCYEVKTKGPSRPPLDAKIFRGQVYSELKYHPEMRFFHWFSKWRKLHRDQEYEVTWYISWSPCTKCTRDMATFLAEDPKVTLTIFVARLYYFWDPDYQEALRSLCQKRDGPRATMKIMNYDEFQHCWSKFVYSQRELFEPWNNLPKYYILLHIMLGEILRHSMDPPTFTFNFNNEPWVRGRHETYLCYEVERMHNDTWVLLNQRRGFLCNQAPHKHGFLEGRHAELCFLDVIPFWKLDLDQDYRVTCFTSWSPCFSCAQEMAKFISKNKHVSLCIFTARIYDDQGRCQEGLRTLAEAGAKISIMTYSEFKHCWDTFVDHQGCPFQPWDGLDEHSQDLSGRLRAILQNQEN

A-375 = test: A375 melanoma cell viability reduction, dose response, counter-screen for MITF modulator project, cherry-pick samples, set 2 (AID 540335); format: functional, cell-based; conditions: Homo sapiens
Phosphomannomutase 2 = Phosphomannomutase 2 (Homo sapiens, UniProt O15305); test: Counter screen SAR assay for PMM2 inhibitors via a fluorescence intensity assay. [Related pubchem assays (depositor defined):AID1545, AID1574]
Sequence of Phosphomannomutase 2 (O15305 whole entry): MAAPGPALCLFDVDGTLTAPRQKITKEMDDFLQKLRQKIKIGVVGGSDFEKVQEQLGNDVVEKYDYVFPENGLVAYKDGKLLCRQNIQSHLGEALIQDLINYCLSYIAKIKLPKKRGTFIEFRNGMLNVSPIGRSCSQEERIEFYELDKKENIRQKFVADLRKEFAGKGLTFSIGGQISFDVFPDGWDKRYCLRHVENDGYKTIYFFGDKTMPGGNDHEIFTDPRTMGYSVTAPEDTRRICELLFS

[19] = target: T2, Mannose-6-phosphate isomerase (Homo sapiens, UniProt P34949); test: PMI enzyme inhibitors, confirmation, biochemical, fluorescence intensity (AID 1535)
T2 sequence (P34949 whole entry): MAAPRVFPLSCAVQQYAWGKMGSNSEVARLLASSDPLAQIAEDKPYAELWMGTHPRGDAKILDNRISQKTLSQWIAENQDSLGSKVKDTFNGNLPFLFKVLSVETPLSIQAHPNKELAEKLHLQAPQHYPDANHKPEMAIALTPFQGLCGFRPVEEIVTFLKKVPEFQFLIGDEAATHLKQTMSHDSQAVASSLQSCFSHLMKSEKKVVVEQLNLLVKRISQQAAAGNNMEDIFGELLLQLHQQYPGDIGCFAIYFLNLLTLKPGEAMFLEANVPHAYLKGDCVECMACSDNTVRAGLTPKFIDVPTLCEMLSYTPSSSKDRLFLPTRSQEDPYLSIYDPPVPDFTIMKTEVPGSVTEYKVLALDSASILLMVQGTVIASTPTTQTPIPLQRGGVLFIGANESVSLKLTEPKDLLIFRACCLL

[20] = growth induction of Burl-1 ts yeast mutant, dose response, counter-screen for SUMOylation pathway inhibitor project, whole organism, S. cerevisiae, luminescence (AID 463199); format: functional

Cc1ccc(Nc2c(-c3ccccn3)nc3cc(C)ccn23)cc1
EC50 [1]: 0.951 µM (active) | AC50 (INS1): 4.81 µM (active) | AC50 [2]: 1.36 µM (active) | IC50 [3]: 0.61 µM (active) | EC50 (cells [4]): 4.69 µM (active) | EC50 (BJ [5]): 7.83 µM (inconclusive) | EC50 (BJ [6]): 7.37 µM (active) | IC50 [7]: 1.7 µM (active) | EC50 [8]: 4.56 µM (active) | AC50 [9]: 61.3 µM (active) | AC50 [10]: 15.5 µM (active) | EC50 (BJ [11]): 12.2 µM (active) | AC50 [12]: 5.48 µM (active) | EC50 [13]: 13.2 µM (active) | AC50 [14]: 4.06 µM (active) | EC50 (cells [15]): 49.3 µM (active)

Cc1c(CCC(=O)O)c(=O)oc2cc(OCc3cccc(F)c3)ccc12
AC50 (CAAX prenyl protease 2): 12.1 µM (active)

CCN1CCN(c2ccc(S(=O)(=O)N3CCOCC3)cc2NC(=O)/C=C/c2ccc([N+](=O)[O-])cc2)CC1
AC50 [16]: 8.13 µM (active) | IC50 [17]: 8.67 µM (active) | IC50 [18]: 7.56 µM (active) | AC50 (A-375): 28.6 µM (active)

O=P(c1ccccc1)(c1nc2ccccc2s1)N1CCOCC1 (centres undefined)
IC50 (Phosphomannomutase 2): > 100 µM (inactive) | IC50 [19]: > 50 µM (inactive)

O=C1CN(C(=O)COC(=O)COc2ccc3c(c2)CCC3)c2ccccc2N1
AC50 [20]: 48.6 µM (active)
